Data reported in PubChem BioAssay AID2060498 (Molecular Pharmacology Branch, DTP, NCI, 2025).

Tested on: 171881-019-R-J1-PDC tumor spheroids, viability
Assay: Anticancer human tumor 171881-019-R-J1-PDC patient-derived invasive breast carcinoma cell line growth inhibition [GQUAD]
Conditions: spheroids with HUVEC and MSC; for IC50: curve of first compound; for viability, T/C: stronger effect = lower value
Procedure, shortened: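 Multi-cell-type spheroids of tumor cells with HUVEC and mesenchymal stem cells, treated with drug combinations. Concentrations descend in half-log steps from near clinical Cmax, or from 10 microM where Cmax is unknown; viability read-out.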

[1] = second compound 0.0316 µM, first compound 0.0316 µM
[2] = second compound 0.0316 µM, first compound 0.1 µM
[3] = second compound 0.0316 µM, first compound 0.316 µM
[4] = second compound 0.0316 µM, first compound 1 µM
[5] = second compound 0.0316 µM, first compound 3.16 µM
[6] = second compound 0.0316 µM, first compound 10 µM
[7] = second compound 0.1 µM, first compound 0.0316 µM
[8] = second compound 0.1 µM, first compound 0.1 µM
[9] = second compound 0.1 µM, first compound 0.316 µM
[10] = second compound 0.1 µM, first compound 1 µM
[11] = second compound 0.1 µM, first compound 3.16 µM
[12] = second compound 0.1 µM, first compound 10 µM
[13] = second compound 0.316 µM, first compound 0.0316 µM
[14] = second compound 0.316 µM, first compound 0.1 µM
[15] = second compound 0.316 µM, first compound 0.316 µM
[16] = second compound 0.316 µM, first compound 1 µM
[17] = second compound 0.316 µM, first compound 3.16 µM
[18] = second compound 0.316 µM, first compound 10 µM
[19] = second compound 1 µM, first compound 0.0316 µM
[20] = second compound 1 µM, first compound 0.1 µM
[21] = second compound 1 µM, first compound 0.316 µM
[22] = second compound 1 µM, first compound 1 µM
[23] = second compound 1 µM, first compound 3.16 µM
[24] = second compound 1 µM, first compound 10 µM
[25] = second compound 3.16 µM, first compound 0.0316 µM
[26] = second compound 3.16 µM, first compound 0.1 µM
[27] = second compound 3.16 µM, first compound 0.316 µM
[28] = second compound 3.16 µM, first compound 1 µM
[29] = second compound 3.16 µM, first compound 3.16 µM
[30] = second compound 3.16 µM, first compound 10 µM
[31] = second compound 10 µM, first compound 0.0316 µM
[32] = second compound 10 µM, first compound 0.1 µM
[33] = second compound 10 µM, first compound 0.316 µM
[34] = second compound 10 µM, first compound 1 µM
[35] = second compound 10 µM, first compound 3.16 µM
[36] = second compound 10 µM, first compound 10 µM
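Also: spheroids exposed to compounds for 7 days.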
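For viability, T/C in this document: 100% = DMSO vehicle control viability.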

C#Cc1c(F)ccc2cc(O)cc(-c3ncc4c(N5CC6CCC(C5)N6)nc(OCC56CCCN5CC(F)C6)nc4c3F)c12 (stereo not drawn) + Cc1[nH]c2ccc(F)cc2c1-c1nc2c3cccnc3c3ncccc3c2[nH]1
IC50 (second compound 0.0316 µM): 599 nM
IC50 (second compound 0.1 µM): 573 nM
IC50 (second compound 0.316 µM): 282 nM
IC50 (second compound 1 µM): 44.9 nM
IC50 (second compound 3.16 µM): < 31.6 nM
IC50 (second compound 10 µM): < 31.6 nM
viability, T/C [1]: 103%
viability, T/C [2]: 69.3%
viability, T/C [3]: 60.6%
viability, T/C [4]: 42.9%
viability, T/C [5]: 24.6%
viability, T/C [6]: 7.54%
viability, T/C [7]: 92.8%
viability, T/C [8]: 75.1%
viability, T/C [9]: 59%
viability, T/C [10]: 41.2%
viability, T/C [11]: 25.1%
viability, T/C [12]: 6.93%
viability, T/C [13]: 82.7%
viability, T/C [14]: 62.3%
viability, T/C [15]: 46.7%
viability, T/C [16]: 31%
viability, T/C [17]: 30%
viability, T/C [18]: 4.2%
viability, T/C [19]: 55.6%
viability, T/C [20]: 39.8%
viability, T/C [21]: 36.8%
viability, T/C [22]: 23.4%
viability, T/C [23]: 22.9%
viability, T/C [24]: 0.29%
viability, T/C [25]: 6.7%
viability, T/C [26]: 3.48%
viability, T/C [27]: 3.47%
viability, T/C [28]: 2.21%
viability, T/C [29]: 1.89%
viability, T/C [30]: 0.17%
viability, T/C [31]: 23.8%
viability, T/C [32]: 27.4%
viability, T/C [33]: 15.8%
viability, T/C [34]: 15%
viability, T/C [35]: 6.1%
viability, T/C [36]: 0.16%

CC(=O)O[C@H]1C(=O)[C@@]2(C)[C@H]([C@H](OC(=O)c3ccccc3)[C@]3(O)C[C@H](OC(=O)[C@H](O)[C@@H](NC(=O)c4ccccc4)c4ccccc4)C(C)=C1C3(C)C)[C@]1(OC(C)=O)CO[C@@H]1C[C@@H]2O + Cc1[nH]c2ccc(F)cc2c1-c1nc2c3cccnc3c3ncccc3c2[nH]1
IC50 (second compound 0.0316 µM): < 31.6 nM
IC50 (second compound 0.1 µM): 36.8 nM
IC50 (second compound 0.316 µM): 32.2 nM
IC50 (second compound 1 µM): < 31.6 nM
IC50 (second compound 3.16 µM): < 31.6 nM
IC50 (second compound 10 µM): < 31.6 nM
viability, T/C [1]: 52.2%
viability, T/C [2]: 32.3%
viability, T/C [3]: 35.5%
viability, T/C [4]: 30.8%
viability, T/C [5]: 28.9%
viability, T/C [6]: 30.1%
viability, T/C [7]: 52.5%
viability, T/C [8]: 33.2%
viability, T/C [9]: 29.5%
viability, T/C [10]: 31%
viability, T/C [11]: 28.3%
viability, T/C [12]: 28.7%
viability, T/C [13]: 50.2%
viability, T/C [14]: 35.5%
viability, T/C [15]: 28.8%
viability, T/C [16]: 29.5%
viability, T/C [17]: 29.7%
viability, T/C [18]: 26.8%
viability, T/C [19]: 41.2%
viability, T/C [20]: 30.2%
viability, T/C [21]: 32.1%
viability, T/C [22]: 24.9%
viability, T/C [23]: 29.7%
viability, T/C [24]: 24.6%
viability, T/C [25]: 6.75%
viability, T/C [26]: 4.71%
viability, T/C [27]: 4.42%
viability, T/C [28]: 3.51%
viability, T/C [29]: 5.16%
viability, T/C [30]: 3.23%
viability, T/C [31]: 27.3%
viability, T/C [32]: 25.1%
viability, T/C [33]: 17.3%
viability, T/C [34]: 21.1%
viability, T/C [35]: 23.2%
viability, T/C [36]: 18.3%

CCCS(=O)(=O)Nc1ccc(F)c(C(=O)c2c[nH]c3ncc(-c4ccc(Cl)cc4)cc23)c1F + Cc1[nH]c2ccc(F)cc2c1-c1nc2c3cccnc3c3ncccc3c2[nH]1
IC50 (second compound 0.0316 µM): 9320 nM
IC50 (second compound 0.1 µM): 8860 nM
IC50 (second compound 0.316 µM): 7730 nM
IC50 (second compound 1 µM): 5620 nM
IC50 (second compound 3.16 µM): < 31.6 nM
IC50 (second compound 10 µM): 31.6 nM
viability, T/C [1]: 104%
viability, T/C [2]: 106%
viability, T/C [3]: 102%
viability, T/C [4]: 121%
viability, T/C [5]: 99%
viability, T/C [6]: 46.7%
viability, T/C [7]: 105%
viability, T/C [8]: 106%
viability, T/C [9]: 105%
viability, T/C [10]: 107%
viability, T/C [11]: 110%
viability, T/C [12]: 43.3%
viability, T/C [13]: 90.2%
viability, T/C [14]: 77.2%
viability, T/C [15]: 98.2%
viability, T/C [16]: 93.2%
viability, T/C [17]: 95.8%
viability, T/C [18]: 38.1%
viability, T/C [19]: 73.7%
viability, T/C [20]: 60.8%
viability, T/C [21]: 82.4%
viability, T/C [22]: 80.7%
viability, T/C [23]: 77.4%
viability, T/C [24]: 25%
viability, T/C [25]: 7.61%
viability, T/C [26]: 8.32%
viability, T/C [27]: 6.95%
viability, T/C [28]: 5.17%
viability, T/C [29]: 12.6%
viability, T/C [30]: 8.93%
viability, T/C [31]: 46.9%
viability, T/C [32]: 45.5%
viability, T/C [33]: 44.4%
viability, T/C [34]: 55.2%
viability, T/C [35]: 51.3%
viability, T/C [36]: 18.5%

O=C(NO)c1cnc(N2CCN(S(=O)(=O)c3ccc4ccccc4c3)CC2)nc1 + Cc1[nH]c2ccc(F)cc2c1-c1nc2c3cccnc3c3ncccc3c2[nH]1
IC50 (second compound 0.0316 µM): 348 nM
IC50 (second compound 0.1 µM): 410 nM
IC50 (second compound 0.316 µM): 341 nM
IC50 (second compound 1 µM): 148 nM
IC50 (second compound 3.16 µM): < 31.6 nM
IC50 (second compound 10 µM): < 31.6 nM
viability, T/C [1]: 93.7%
viability, T/C [2]: 83.3%
viability, T/C [3]: 55%
viability, T/C [4]: 1.74%
viability, T/C [5]: 0.09%
viability, T/C [6]: 0.15%
viability, T/C [7]: 88.4%
viability, T/C [8]: 78.7%
viability, T/C [9]: 63.8%
viability, T/C [10]: 2.75%
viability, T/C [11]: 0.09%
viability, T/C [12]: 0.11%
viability, T/C [13]: 73.3%
viability, T/C [14]: 65.3%
viability, T/C [15]: 53.4%
viability, T/C [16]: 2.53%
viability, T/C [17]: 0.14%
viability, T/C [18]: 0.21%
viability, T/C [19]: 60.2%
viability, T/C [20]: 49.3%
viability, T/C [21]: 41.2%
viability, T/C [22]: 1.79%
viability, T/C [23]: 0.34%
viability, T/C [24]: 0.4%
viability, T/C [25]: 7.54%
viability, T/C [26]: 5.44%
viability, T/C [27]: 2.89%
viability, T/C [28]: 0.17%
viability, T/C [29]: 0.14%
viability, T/C [30]: 0.28%
viability, T/C [31]: 34.9%
viability, T/C [32]: 31.9%
viability, T/C [33]: 24.6%
viability, T/C [34]: 0.85%
viability, T/C [35]: 0.2%
viability, T/C [36]: 0.32%
